Measured values: ChEMBL document CHEMBL1201862, “PubChem BioAssay data set” (2004)
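Protocol summary: plate cells (96-well), add compound at 5 concentrations, incubate 48 h, interpolate endpoints linearly. Abbreviation: GI50, concentration required for 50% inhibition of growth.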 Calls of active or inactive are those of the source. No stated cut-off is given here; in the data, active = GI50 up to about 1.1 µM and inactive = higher.

Tests used:
Experiment in all cases: NCI anticancer screen, dose series, 48 h
HCC 2998 = system: HCC 2998
MCF7 = system: MCF7
Hs-578T = system: Hs-578T
OVCAR-8 = system: OVCAR-8
SF-295 = system: SF-295
SW-620 = system: SW-620
COLO 205 = system: COLO 205
IGROV-1 = system: IGROV-1
SN12C = system: SN12C
RPMI-8226 = system: RPMI-8226
EKVX = system: EKVX
Malme-3M = system: Malme-3M
DU-145 = system: DU-145
LOX IMVI = system: LOX IMVI
ACHN = system: ACHN
SK-OV-3 = system: SK-OV-3
HL-60 = system: HL-60
A498 = system: A498
NCI-H226 = system: NCI-H226
OVCAR-4 = system: OVCAR-4
OVCAR-3 = system: OVCAR-3
SF-268 = system: SF-268
HCT-116 = system: HCT-116
MDA-MB-435 = system: MDA-MB-435
SNB-19 = system: SNB-19
SR = system: SR
HOP-92 = system: HOP-92
UACC-62 = system: UACC-62
NCI/ADR-RES = system: NCI/ADR-RES
SK-MEL-5 = system: SK-MEL-5
CAKI-1 = system: CAKI-1
786-0 = system: 786-0
HOP-62 = system: HOP-62
MDA-N = system: MDA-N
UACC-257 = system: UACC-257
MDA-MB-231 = system: MDA-MB-231
HCT-15 = system: HCT-15
MOLT-4 = system: MOLT-4
PC-3 = system: PC-3
TK-10 = system: TK-10
A549 = system: A549
SNB-75 = system: SNB-75
SK-MEL-2 = system: SK-MEL-2
UO-31 = system: UO-31
BT-549 = system: BT-549
NCI-H522 = system: NCI-H522
SF-539 = system: SF-539
NCI-H460 = system: NCI-H460
SK-MEL-28 = system: SK-MEL-28
HT-29 = system: HT-29
NCI-H23 = system: NCI-H23
KM12 = system: KM12
OVCAR-5 = system: OVCAR-5
U-251 = system: U-251
M14 = system: M14
T47D = system: T47D
RXF 393 = system: RXF 393
CCRF-CEM = system: CCRF-CEM
K562 = system: K562

## Cc1ccc(OC2CC(n3cnc4ncnc(Cl)c43)OC2Oc2ccc(C)cc2)cc1 (stereo unspecified)
HCC 2998
  GI50: 8.04 µM (inactive)
MCF7
  GI50: 5.96 µM (inactive)
Hs-578T
  GI50: 21.8 µM (inactive)
OVCAR-8
  GI50: 8.32 µM (inactive)
SF-295
  GI50: 21.1 µM (inactive)
SW-620
  GI50: 48.5 µM (inactive)
COLO 205
  GI50: 14.8 µM (inactive)
IGROV-1
  GI50: 17 µM (inactive)
SN12C
  GI50: 29.6 µM (inactive)
RPMI-8226
  GI50: 2.81 µM (inactive)
EKVX
  GI50: 33.3 µM (inactive)
Malme-3M
  GI50: 40.5 µM (inactive)
DU-145
  GI50: 15.7 µM (inactive)
LOX IMVI
  GI50: 5.51 µM (inactive)
ACHN
  GI50: 2.59 µM (inactive)
SK-OV-3
  GI50: > 100 µM (inactive)
HL-60
  GI50: 3.77 µM (inactive)
A498
  GI50: 45.6 µM (inactive)
NCI-H226
  GI50: 13.7 µM (inactive)
OVCAR-4
  GI50: 27.9 µM (inactive)
OVCAR-3
  GI50: 14.6 µM (inactive)
SF-268
  GI50: 18.7 µM (inactive)
HCT-116
  GI50: 9.77 µM (inactive)
MDA-MB-435
  GI50: 39.1 µM (inactive)
SNB-19
  GI50: 16.1 µM (inactive)
SR
  GI50: 2.48 µM (inactive)
HOP-92
  GI50: 8.77 µM (inactive)
UACC-62
  GI50: 14.1 µM (inactive)
NCI/ADR-RES
  GI50: 18.8 µM (inactive)
SK-MEL-5
  GI50: 18.5 µM (inactive)
CAKI-1
  GI50: 2.11 µM (inactive)
786-0
  GI50: > 100 µM (inactive)
HOP-62
  GI50: 27.3 µM (inactive)
MDA-N
  GI50: 22.4 µM (inactive)
UACC-257
  GI50: 44.8 µM (inactive)
MDA-MB-231
  GI50: 17.5 µM (inactive)
HCT-15
  GI50: 13.8 µM
MOLT-4
  GI50: 4.49 µM (inactive)
PC-3
  GI50: 16.4 µM (inactive)
TK-10
  GI50: > 100 µM (inactive)
A549
  GI50: 25.2 µM (inactive)
SNB-75
  GI50: 15.6 µM (inactive)
SK-MEL-2
  GI50: 13.6 µM (inactive)
UO-31
  GI50: 11.1 µM (inactive)
BT-549
  GI50: 25.4 µM (inactive)
NCI-H522
  GI50: 5.36 µM (inactive)
SF-539
  GI50: 7.78 µM (inactive)
NCI-H460
  GI50: 12.7 µM (inactive)
SK-MEL-28
  GI50: > 100 µM (inactive)
HT-29
  GI50: 16.9 µM (inactive)
NCI-H23
  GI50: 24.8 µM (inactive)
KM12
  GI50: 18.4 µM (inactive)
OVCAR-5
  GI50: 22 µM (inactive)
U-251
  GI50: 36.1 µM (inactive)
M14
  GI50: 18.1 µM (inactive)
T47D
  GI50: 12.6 µM (inactive)

## CCOc1cc(C2CC(c3ccc(NS(=O)(=O)c4cc([N+](=O)[O-])ccc4C)cc3)=NN2S(=O)(=O)c2cc([N+](=O)[O-])ccc2C)ccc1O (stereo unspecified)
MCF7
  GI50: 31.9 µM (inactive)
Hs-578T
  GI50: 42.4 µM (inactive)
OVCAR-8
  GI50: 42.8 µM (inactive)
SF-295
  GI50: 31.9 µM (inactive)
SW-620
  GI50: 64.7 µM (inactive)
COLO 205
  GI50: 37.4 µM (inactive)
IGROV-1
  GI50: 18.5 µM (inactive)
SN12C
  GI50: 28.4 µM (inactive)
RPMI-8226
  GI50: 34.3 µM (inactive)
EKVX
  GI50: 22.1 µM (inactive)
Malme-3M
  GI50: 23.3 µM (inactive)
DU-145
  GI50: 43.8 µM (inactive)
LOX IMVI
  GI50: 40.1 µM (inactive)
ACHN
  GI50: 39.6 µM (inactive)
SK-OV-3
  GI50: 39.9 µM (inactive)
HL-60
  GI50: 38.5 µM (inactive)
A498
  GI50: 2.44 µM (inactive)
NCI-H226
  GI50: 31.6 µM (inactive)
OVCAR-4
  GI50: 38.6 µM (inactive)
OVCAR-3
  GI50: 23.4 µM (inactive)
SF-268
  GI50: 39.7 µM (inactive)
HCT-116
  GI50: 36.5 µM (inactive)
MDA-MB-435
  GI50: 38.4 µM (inactive)
SNB-19
  GI50: 43.6 µM (inactive)
SR
  GI50: 32.4 µM (inactive)
HOP-92
  GI50: 17.5 µM (inactive)
NCI/ADR-RES
  GI50: 39.4 µM (inactive)
SK-MEL-5
  GI50: 18.5 µM (inactive)
CAKI-1
  GI50: 42.9 µM (inactive)
RXF 393
  GI50: 29 µM (inactive)
786-0
  GI50: 33.3 µM (inactive)
CCRF-CEM
  GI50: 33 µM (inactive)
HOP-62
  GI50: 30.8 µM (inactive)
MDA-N
  GI50: 43.3 µM (inactive)
UACC-257
  GI50: 32.7 µM (inactive)
MDA-MB-231
  GI50: 32.1 µM (inactive)
HCT-15
  GI50: 39 µM
MOLT-4
  GI50: 30.4 µM (inactive)
PC-3
  GI50: 32.7 µM (inactive)
TK-10
  GI50: 36.4 µM (inactive)
A549
  GI50: 32.4 µM (inactive)
K562
  GI50: 35.1 µM (inactive)
SK-MEL-2
  GI50: 22.6 µM (inactive)
UO-31
  GI50: 32.6 µM (inactive)
BT-549
  GI50: 39.4 µM (inactive)
NCI-H522
  GI50: 22.9 µM (inactive)
SF-539
  GI50: 33.7 µM (inactive)
SK-MEL-28
  GI50: 83 µM (inactive)
HT-29
  GI50: 49.3 µM (inactive)
NCI-H23
  GI50: 30.6 µM (inactive)
KM12
  GI50: 41.1 µM (inactive)
OVCAR-5
  GI50: > 100 µM (inactive)
U-251
  GI50: 30.7 µM (inactive)
M14
  GI50: 34.1 µM (inactive)
T47D
  GI50: 19.8 µM (inactive)
